Assay results as given in ChEMBL document CHEMBL1154629, “Design, synthesis and biological evaluation of novel thiazole derivatives as potent FabH inhibitors” (Bioorg Med Chem Lett, 2009).
pIC50: −log10 of the molar value. ≈ marks a conversion by molar mass, not a printed value.

What was measured:
Staphylococcus aureus = experiment: Antimicrobial activity Staphylococcus aureus ATCC 6538 by MTT assay; assay type: functional
Bacillus subtilis = experiment: Antimicrobial activity Bacillus subtilis ATCC 6633 by MTT assay; assay type: functional
Pseudomonas aeruginosa = experiment: Antimicrobial activity Pseudomonas aeruginosa ATCC 13525 by MTT assay
Enterobacter cloacae = experiment: Antimicrobial activity Enterobacter cloacae ATCC 13047 by MTT assay; assay type: functional
Enterococcus faecalis = experiment: Antimicrobial activity Streptococcus faecalis ATCC 9790 by MTT assay; assay type: functional
[1] = Toxicity in erythrocytes assessed as hemolysis; assay type: cell-based; conditions: erythrocyte
[2] = molecular target: T1, 3-oxoacyl-[acyl-carrier-protein] synthase 3 (Escherichia coli, UniProt C3TDZ2); experiment: Inhibition of Escherichia coli FabH
T1 sequence (C3TDZ2 whole entry): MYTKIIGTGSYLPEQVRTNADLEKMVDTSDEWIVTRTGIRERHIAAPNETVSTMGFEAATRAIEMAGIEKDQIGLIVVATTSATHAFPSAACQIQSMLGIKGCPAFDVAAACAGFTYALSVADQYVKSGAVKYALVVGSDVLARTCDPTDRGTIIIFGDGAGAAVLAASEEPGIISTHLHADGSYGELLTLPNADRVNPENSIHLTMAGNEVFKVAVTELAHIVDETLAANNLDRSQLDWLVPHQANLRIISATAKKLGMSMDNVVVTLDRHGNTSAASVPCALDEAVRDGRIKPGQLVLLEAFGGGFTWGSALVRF

Escherichia coli = experiment: Antimicrobial activity Escherichia coli ATCC 35218 by MTT assay

SMILES	MIC (Staphylococcus aureus)	MIC (Bacillus subtilis)	MIC (Pseudomonas aeruginosa)	MIC (Enterobacter cloacae)	MIC (Enterococcus faecalis)	pIC50 [2]	MIC (Escherichia coli)	LC30 [1]
Clc1ccc(/C=N/Nc2nc(-c3ccccc3)cs2)cc1	25 µg/mL (≈ 79.7 µM)	25 µg/mL (≈ 79.7 µM)	25 µg/mL (≈ 79.7 µM)	25 µg/mL (≈ 79.7 µM)	25 µg/mL (≈ 79.7 µM)			
COc1ccc(/C=N/Nc2nc(-c3ccc(Cl)cc3)cs2)cc1	25 µg/mL (≈ 72.7 µM)	12.5 µg/mL (≈ 36.4 µM)	25 µg/mL (≈ 72.7 µM)	> 50 µg/mL	> 50 µg/mL			
Oc1ccc(Cl)cc1/C=N/Nc1nc(-c2ccc(Cl)cc2)cs1	12.5 µg/mL (≈ 34.3 µM)	6.25 µg/mL (≈ 17.2 µM)	12.5 µg/mL (≈ 34.3 µM)	12.5 µg/mL (≈ 34.3 µM)	25 µg/mL (≈ 68.6 µM)	4.93		> 10000 µg/mL
Oc1ccc(Cl)cc1/C=N/Nc1nc(-c2ccccc2)cs1	> 50 µg/mL	> 50 µg/mL	12.5 µg/mL (≈ 37.9 µM)	> 50 µg/mL	25 µg/mL (≈ 75.8 µM)		12.5 µg/mL (≈ 37.9 µM)	
Clc1ccc(-c2csc(N/N=C/c3ccc(Br)cc3)n2)cc1	12.5 µg/mL (≈ 31.8 µM)	12.5 µg/mL (≈ 31.8 µM)	> 50 µg/mL	12.5 µg/mL (≈ 31.8 µM)	25 µg/mL (≈ 63.7 µM)			
Oc1ccc(Br)cc1/C=N/Nc1nc(-c2ccccc2)cs1	25 µg/mL (≈ 66.8 µM)	12.5 µg/mL (≈ 33.4 µM)	25 µg/mL (≈ 66.8 µM)	25 µg/mL (≈ 66.8 µM)	12.5 µg/mL (≈ 33.4 µM)			
Oc1ccc(Br)cc1/C=N/Nc1nc(-c2ccc(Cl)cc2)cs1	6.25 µg/mL (≈ 15.3 µM)	25 µg/mL (≈ 61.2 µM)	6.25 µg/mL (≈ 15.3 µM)	6.25 µg/mL (≈ 15.3 µM)	12.5 µg/mL (≈ 30.6 µM)	5.17		> 10000 µg/mL
Brc1ccc(/C=N/Nc2nc(-c3ccccc3)cs2)cc1	12.5 µg/mL (≈ 34.9 µM)	> 50 µg/mL	12.5 µg/mL (≈ 34.9 µM)	25 µg/mL (≈ 69.8 µM)	1.56 µg/mL (≈ 4.36 µM)			
Oc1ccc(Cl)cc1/C=N/Nc1nc(-c2ccc(Cl)c(Cl)c2)cs1	12.5 µg/mL (≈ 31.4 µM)	> 50 µg/mL	12.5 µg/mL (≈ 31.4 µM)	> 50 µg/mL	12.5 µg/mL (≈ 31.4 µM)	4.40		> 10000 µg/mL
Oc1c(Cl)cc(Cl)cc1/C=N/Nc1nc(-c2ccccc2)cs1	> 50 µg/mL	25 µg/mL (≈ 68.6 µM)	> 50 µg/mL	12.5 µg/mL (≈ 34.3 µM)	25 µg/mL (≈ 68.6 µM)			
Clc1ccc(-c2csc(N/N=C/c3ccc(Br)cc3)n2)cc1Cl	3.12 µg/mL (≈ 7.32 µM)	6.25 µg/mL (≈ 14.6 µM)	12.5 µg/mL (≈ 29.3 µM)	> 50 µg/mL	25 µg/mL (≈ 58.5 µM)		12.5 µg/mL (≈ 29.3 µM)	
Oc1ccc(Br)cc1/C=N/Nc1nc(-c2ccc(Cl)c(Cl)c2)cs1	25 µg/mL (≈ 56.4 µM)	12.5 µg/mL (≈ 28.2 µM)	12.5 µg/mL (≈ 28.2 µM)	12.5 µg/mL (≈ 28.2 µM)	> 50 µg/mL	4.36		> 10000 µg/mL
Fc1ccc(/C=N/Nc2nc(-c3ccccc3)cs2)cc1	6.25 µg/mL (≈ 21 µM)	12.5 µg/mL (≈ 42 µM)	12.5 µg/mL (≈ 42 µM)	> 50 µg/mL	> 50 µg/mL			
Cc1ccc(/C=N/Nc2nc(-c3ccccc3)cs2)cc1	25 µg/mL (≈ 85.2 µM)	> 50 µg/mL	25 µg/mL (≈ 85.2 µM)	> 50 µg/mL	> 50 µg/mL			
CC1(C)S[C@@H]2[C@H](NC(=O)Cc3ccccc3)C(=O)N2[C@H]1C(=O)O [PENICILLIN G]	1.56 µg/mL (≈ 4.67 µM)	1.56 µg/mL (≈ 4.67 µM)	6.25 µg/mL (≈ 18.7 µM)	3.12 µg/mL (≈ 9.35 µM)	1.56 µg/mL (≈ 4.67 µM)		6.25 µg/mL (≈ 18.7 µM)	

Continued, in another order:

MIC (Staphylococcus aureus)	MIC (Bacillus subtilis)	MIC (Pseudomonas aeruginosa)	MIC (Enterobacter cloacae)	MIC (Enterococcus faecalis)	pIC50 [2]	MIC (Escherichia coli)	SMILES	LC30 [1]
> 50 µg/mL	25 µg/mL (≈ 80.8 µM)	> 50 µg/mL	> 50 µg/mL	> 50 µg/mL			COc1ccc(/C=N/Nc2nc(-c3ccccc3)cs2)cc1	
> 50 µg/mL	12.5 µg/mL (≈ 27.6 µM)	25 µg/mL (≈ 55.2 µM)	25 µg/mL (≈ 55.2 µM)	25 µg/mL (≈ 55.2 µM)		25 µg/mL (≈ 55.2 µM)	Oc1c(Br)cc(Br)cc1/C=N/Nc1nc(-c2ccccc2)cs1	
12.5 µg/mL (≈ 35.9 µM)	> 50 µg/mL	6.25 µg/mL (≈ 17.9 µM)	> 50 µg/mL	> 50 µg/mL			Clc1ccc(/C=N/Nc2nc(-c3ccc(Cl)cc3)cs2)cc1	
6.25 µg/mL (≈ 12 µM)	3.12 µg/mL (≈ 5.99 µM)	3.12 µg/mL (≈ 5.99 µM)	3.12 µg/mL (≈ 5.99 µM)	6.25 µg/mL (≈ 12 µM)	5.44		Oc1c(Br)cc(Br)cc1/C=N/Nc1nc(-c2ccc(Cl)c(Cl)c2)cs1	> 10000 µg/mL
25 µg/mL (≈ 69 µM)	> 50 µg/mL	25 µg/mL (≈ 69 µM)	12.5 µg/mL (≈ 34.5 µM)	> 50 µg/mL		25 µg/mL (≈ 69 µM)	Cc1ccc(/C=N/Nc2nc(-c3ccc(Cl)c(Cl)c3)cs2)cc1	
1.56 µg/mL (≈ 4.08 µM)	12.5 µg/mL (≈ 32.7 µM)	12.5 µg/mL (≈ 32.7 µM)	25 µg/mL (≈ 65.3 µM)	25 µg/mL (≈ 65.3 µM)		12.5 µg/mL (≈ 32.7 µM)	Clc1ccc(/C=N/Nc2nc(-c3ccc(Cl)c(Cl)c3)cs2)cc1	
6.25 µg/mL (≈ 18.8 µM)	12.5 µg/mL (≈ 37.7 µM)	25 µg/mL (≈ 75.3 µM)	25 µg/mL (≈ 75.3 µM)	12.5 µg/mL (≈ 37.7 µM)			Fc1ccc(/C=N/Nc2nc(-c3ccc(Cl)cc3)cs2)cc1	
> 50 µg/mL	> 50 µg/mL	6.25 µg/mL (≈ 15.7 µM)	> 50 µg/mL	12.5 µg/mL (≈ 31.4 µM)	4.24	6.25 µg/mL (≈ 15.7 µM)	Oc1c(Cl)cc(Cl)cc1/C=N/Nc1nc(-c2ccc(Cl)cc2)cs1	> 10000 µg/mL
6.25 µg/mL (≈ 14.4 µM)	12.5 µg/mL (≈ 28.9 µM)	6.25 µg/mL (≈ 14.4 µM)	12.5 µg/mL (≈ 28.9 µM)	12.5 µg/mL (≈ 28.9 µM)	4.78		Oc1c(Cl)cc(Cl)cc1/C=N/Nc1nc(-c2ccc(Cl)c(Cl)c2)cs1	> 10000 µg/mL
25 µg/mL (≈ 66.1 µM)	25 µg/mL (≈ 66.1 µM)	25 µg/mL (≈ 66.1 µM)	6.25 µg/mL (≈ 16.5 µM)	> 50 µg/mL			COc1ccc(/C=N/Nc2nc(-c3ccc(Cl)c(Cl)c3)cs2)cc1	
0.78 µg/mL (≈ 2.13 µM)	6.25 µg/mL (≈ 17.1 µM)	25 µg/mL (≈ 68.3 µM)	25 µg/mL (≈ 68.3 µM)	6.25 µg/mL (≈ 17.1 µM)		25 µg/mL (≈ 68.3 µM)	Fc1ccc(/C=N/Nc2nc(-c3ccc(Cl)c(Cl)c3)cs2)cc1	
25 µg/mL (≈ 51.3 µM)	> 50 µg/mL	25 µg/mL (≈ 51.3 µM)	6.25 µg/mL (≈ 12.8 µM)	> 50 µg/mL	4.11		Oc1c(Br)cc(Br)cc1/C=N/Nc1nc(-c2ccc(Cl)cc2)cs1	> 10000 µg/mL
25 µg/mL (≈ 76.3 µM)	6.25 µg/mL (≈ 19.1 µM)	25 µg/mL (≈ 76.3 µM)	6.25 µg/mL (≈ 19.1 µM)	12.5 µg/mL (≈ 38.1 µM)			Cc1ccc(/C=N/Nc2nc(-c3ccc(Cl)cc3)cs2)cc1	
1.56 µg/mL (≈ 3.23 µM)	0.39 µg/mL (≈ 0.807 µM)	3.12 µg/mL (≈ 6.46 µM)	1.56 µg/mL (≈ 3.23 µM)	3.12 µg/mL (≈ 6.46 µM)		3.12 µg/mL (≈ 6.46 µM)	NC[C@H]1O[C@H](O[C@H]2[C@H](O)[C@@H](O[C@H]3O[C@H](CO)[C@@H](O)[C@H](N)[C@H]3O)[C@H](N)C[C@@H]2N)[C@H](N)[C@@H](O)[C@@H]1O [BEKANAMYCIN]	
